Measured values as given in US10189863B2, “5,6-dihydro-4H-benzo[b]thieno-[2,3-d]azepine derivatives” (PULMOCIDE LIMITED, priority 2014, dated 2019).

Tests used:
RSV A2 strain = experiment: Assessment of RSV induced CPE in HEp2 cells (RSV A2 strain); type: cell-based; settings: human respiratory syncytial virus, HEp2 cells; for IC50: HEp-2, 120 h, 1 MOI, 5 days, read-out: RSV A2 CPE IC50; for inhibition at 0.1 µg/mL / inhibition at 0.01 µg/mL: HEp-2; for inhibition at 0.1 µg/mL: Inhibition (%) at 0.1 μg/mL, read-out: RSV A2 CPE % Inhibition; for inhibition at 0.01 µg/mL: Inhibition (%) at 0.01 μg/mL
Method: (§1) Assessment of RSV Induced CPE in HEp2 Cells
(§2) HEp2 cells were seeded (10^3/well/50 μL) in 384-well plates (Catalogue number 353962, BD Falcon, Oxford, UK) in […] containing 2 mM L-glutamine and 1 mM sodium pyruvate one day before infection. RSV A2 strain (#0709161v, NCPV, Public Health England, Wiltshire) or RSV B Washington strain (VR-1580, ATCC, Manassas, Va. 20108) virus solutions were prepared in serum free-DMEM with 2 mM L-glutamine and 1 mM sodium pyruvate, and then added (50 μL/well) to achieve a final virus concentration of 1 MOI. Simultaneously test compounds (0.5 μL DMSO solution) were added to 100 μL of HEp2 cell culture with virus solution to provide a final DMSO solution of 0.5%. Plates were incubated (37° C./5% CO2) for 5 days for studies using RSV A2 strain or 6 days for those using RSV B strain, and then resazurin sodium salt (5 μL of 0.03% solution; Sigma-Aldrich, Dorset, UK) was added to each well and the plate incubated for a further 6 hr (37° C./5% CO2). The fluorescence of each well [545 nm (excitation)/590 nm (emission)] was determined using a multi-scanner (Clariostar: BMG, Buckinghamshire, UK). The percentage inhibition for each well was calculated and the IC50, IC75 and IC90 values were calculated from the concentration-response curve generated for each test compound.

RSV B Washington strain = experiment: Assessment of RSV induced CPE in HEp2 cells (RSV B Washington strain); type: cell-based; settings: human respiratory syncytial virus, HEp2 cells; for IC50: HEp-2, 144 h, 1 MOI, 6 days, read-out: RSV B CPE IC50; for inhibition at 1 µg/mL: HEp-2, Inhibition (%) at 1 μg/mL, read-out: RSV B CPE % Inhibition
Method: as §1, §2

[1] = Cell viability: resazurin assay; type: cell-based, human; settings: human, HEp2 cells
Method: Cell Viability: Resazurin Assay
HEp2 cells were seeded in 384-well plates (10^3/well/50 μL; BD Falcon Ref 353962) in FBS DMEM (5%, containing 2 mM L-glutamine and 1 mM sodium pyruvate) one day before experimentation. Serum-free DMEM (50 μL) was added to test wells while for control wells the media was removed and sterile water (100 μL) was added. Test compounds (0.5 μL DMSO solution) were added to give a final DMSO concentration of 0.5%. Hep2 cells were incubated with each test compound for 5 days (37° C./5% CO2 in 5% FBS) and then resazurin stock solution (5 μL; 0.03%) was added to each well and the plate incubated for a further 6 hr (37° C./5% CO2). The fluorescence of each well at 545 nm (excitation) and 590 nm (emission) was determined using a multi-scanner (Clariostar: BMG Labtech). The percentage loss of cell viability was calculated for each well relative to vehicle (0.5% DMSO) treatment.
Any apparent increase in cell viability associated with test compound treatment relative to vehicle is consequently tabulated as a negative percentage. Where appropriate, a CC50 value was calculated from the concentration-response curve generated from the concentration-response curve for each test compound.

| SMILES | IC50 (RSV A2 strain) | inhibition at 0.1 µg/mL (RSV A2 strain) | IC50 (RSV B Washington strain) | inhibition at 1 µg/mL (RSV B Washington strain) | CC50 at 5 days [1] | inhibition at 0.01 µg/mL (RSV A2 strain) |
| --- | --- | --- | --- | --- | --- | --- |
| Cc1cnc(N2CC3(CCOCC3)C2)c(C(=O)Nc2ccc(C(=O)N3CCc4cc(C(=O)Nc5c(F)cccc5C5CC5)sc4-c4ccccc43)cc2)c1 [Example 7, N-(2-Cyclopropyl-6-fluorophenyl)-6-(4-(5-methyl-2-(7-oxa-2-azaspiro[3.5]nonan-2-yl)nicotinamido)benzoyl)-5,6-dihydro-4H-benzo[b]thieno[2,3-d]azepine-2-carboxamide] | 0.15 nM | 100% | 98.6 nM | 94% | > 13500 nM | – |
| O=C(Nc1c(F)cccc1Cl)c1cc2c(s1)-c1ccccc1N(C(=O)c1ccc(NC(=O)c3cc4c(nc3N3CC5(CCOCC5)C3)CCC4)cc1F)CC2 [Example 80, 6-(4-(2-(7-oxa-2-azaspiro[3.5]nonan-2-yl)-6,7-dihydro-5H-cyclopenta[b]pyridine-3-carboxamido)-2-fluorobenzoyl)-N-(2-chloro-6-fluorophenyl)-5,6-dihydro-4H-benzo[b]thieno [2,3-d]azepine-2-carboxamide] | 2 nM | – | 1.6 nM | 93% | > 12800 nM | 91% |
| [2H]c1c([2H])c(C(=O)N2CCc3cc(C(=O)Nc4c(C)cccc4F)sc3-c3ccccc32)c([2H])c([2H])c1NC(=O)c1cc(C)cnc1N1CC2(CCOCC2)C1 [Example 70] | 0.18 nM | – | 1.2 nM | 100% | > 13900 nM | 76% |
| Cc1cnc(N2CCC3(CC2)COC3)c(C(=O)Nc2ccc(C(=O)N3CCc4cc(C(=O)Nc5c(F)cccc5C(F)(F)F)sc4-c4ccccc43)cc2)c1 [Example 94, N-(2-fluoro-6-(trifluoromethyl)phenyl)-6-(4-(5-methyl-2-(2-oxa-7-azaspiro[3.5]nonan-7-yl)nicotinamido)benzoyl)-5,6-dihydro-4H-benzo[b]thieno[2,3-d]azepine-2-carboxamide] | 1.4 nM | – | 811 nM | 54% | > 13000 nM | 100% |
| Cc1cnc(N2CC3(CCOCC3)C2)c(C(=O)Nc2ccc(C(=O)N3CCc4cc(C(=O)Nc5c(C)cccc5CO)sc4-c4ccccc43)cc2)c1 [Example 58, N-(2-(hydroxymethyl)-6-methylphenyl)-6-(4-(5-methyl-2-(7-oxa-2-azaspiro[3.5]nonan-2-yl)nicotinamido)benzoyl)-5,6-dihydro-4H-benzo[b]thieno[2,3-d]azepine-2-carboxamide] | 0.32 nM | – | 8.6 nM | 100% | > 13700 nM | 100% |
| Cc1ccccc1NC(=O)c1cc2c(s1)-c1ccccc1N(C(=O)c1ccc(NC(=O)c3cc(C)c(C)nc3N3CC4(CCOCC4)C3)cc1)CC2 [Example 42, 6-(4-(5,6-dimethyl-2-(7-oxa-2-azaspiro[3.5]nonan-2-yl)nicotinamido)benzoyl)-N-(o-tolyl)-5,6-dihydro-4H-benzo[b] thieno[2,3-d]azepine-2-carboxamide] | 0.14 nM | 97% | 60.5 nM | 80% | > 14000 nM | – |
| C#Cc1cccc(F)c1NC(=O)c1cc2c(s1)-c1ccccc1N(C(=O)c1ccc(NC(=O)c3cc(C)cnc3N3CC4(CCOCC4)C3)cc1)CC2 [Example 37, N-(2-ethynyl-6-fluorophenyl)-6-(4-(5-methyl-2-(7-oxa-2-azaspiro[3.5]nonan-2-yl)nicotinamido)benzoyl)-5,6-dihydro-4H-benzo[b]thieno[2,3-d]azepine-2-carboxamide] | 0.15 nM | – | 7.2 nM | 100% | > 13800 nM | 100% |
| O=C(Nc1ccccc1F)c1cc2c(s1)-c1ccccc1N(C(=O)c1ccc(NC(=O)c3cccnc3N3CC4(CCOCC4)C3)cc1F)CC2 [Example 29, 6-(4-(2-(7-oxa-2-azaspiro[3.5]nonan-2-yl)nicotinamido)-2-fluorobenzoyl)-N-(2-fluorophenyl)-5,6-dihydro-4H-benzo[b]thieno[2,3-d]azepine-2-carboxamide] | 0.13 nM | 97% | 27.9 nM | 73% | > 14200 nM | – |
| Cc1cc(C(=O)Nc2ccc(C(=O)N3CCc4cc(C(=O)Nc5ccccc5F)sc4-c4ccccc43)cc2)c(N2CC3(CCOCC3)C2)nc1C [Example 43, 6-(4-(5,6-dimethyl-2-(7-oxa-2-azaspiro[3.5]nonan-2-yl)nicotinamido)benzoyl)-N-(2-fluorophenyl)-5,6-dihydro-4H-benzo[b]thieno[2,3-d]azepine-2-carboxamide] | 0.12 nM | 100% | 59.4 nM | 72% | > 14000 nM | – |
| Cc1cccc(C)c1NC(=O)c1cc2c(s1)-c1ccccc1N(C(=O)c1ccc(NC(=O)c3cccnc3N3CC4(CCOCC4)C3)cc1)CC2 [Example 24, 6-(4-(2-(7-oxa-2-azaspiro[3.5]nonan-2-yl)nicotinamido)benzoyl)-N-(2,6-dimethylphenyl)-5,6-dihydro-4H-benzo[b] thieno[2,3-d]azepine-2-carboxamide] | 0.57 nM | 88% | 19.6 nM | 65% | > 14300 nM | – |
| C=C(C)c1cnc(N2CC3(CCOCC3)C2)c(C(=O)Nc2ccc(C(=O)N3CCc4cc(C(=O)Nc5c(F)cccc5F)sc4-c4ccccc43)cc2)c1 [Example 73, N-(2,6-difluorophenyl)-6-(4-(5-(prop-1-en-2-yl)-2-(7-oxa-2-azaspiro[3.5]nonan-2-yl)nicotinamido)benzoyl)-5,6-dihydro-4H-benzo[b]thieno[2,3-d]azepine-2-carboxamide] | 2.6 nM | – | 14.8 nM | 98% | > 13400 nM | 84% |
| Cc1cnc(N2CC3(CCOCC3)C2)c(C(=O)Nc2ccc(C(=O)N3CCc4cc(C(=O)Nc5ccccc5)sc4-c4ccccc43)cc2)c1 [Example 32, 6-(4-(5-methyl-2-(7-oxa-2-azaspiro[3.5]nonan-2-yl)nicotinamido)benzoyl)-N-phenyl-5,6-dihydro-4H-benzo[b] thieno[2,3-d]azepine-2-carboxamide] | < 0.015 nM | 100% | 38.2 nM | 81% | > 14600 nM | – |
| Cc1cccc(F)c1NC(=O)c1cc2c(s1)-c1ccccc1N(C(=O)c1ccc(NC(=O)c3cc4c(nc3N3CC5(CCOCC5)C3)CCOC4)cc1)CC2 [Example 12, N-(4-(2-((2-Fluoro-6-methylphenyl)carbamoyl)-5,6-dihydro-4H-benzo[b]thieno[2,3-d]azepine-6-carbonyl)phenyl)-2-(7-oxa-2-azaspiro[3.5]nonan-2-yl)-7,8-di hydro-5H-pyrano[4,3-b]pyridine-3-carboxamide] | 0.42 nM | – | 1.3 nM | 98% | > 13200 nM | 100% |
| Cc1cccc(F)c1NC(=O)c1cc2c(s1)-c1ccccc1N(C(=O)c1ccc(NC(=O)c3cccnc3N3CC4(CCOCC4)C3)cc1)CC2 [Example 25, 6-(4-(2-(7-oxa-2-azaspiro[3.5]nonan-2-yl)nicotinamido)benzoyl)-N-(2-fluoro-6-methylphenyl)-5,6-dihydro-4H-benzo[b]thieno[2,3-d]azepine-2-carboxamide] | 0.18 nM | 99% | 20.6 nM | 71% | > 14200 nM | – |
